Experimental data taken from patent US20080063628A1, “METHODS TO PROMOTE CELL DIFFERENTIATION” (priority 2006, published 2008).

Legend:
[1] = tested on: early passage (P5) pancreatic-derived stromal cell line; test: Two sequential low dose trichostatin A treatments, gene expression by RT-PCR (Example 7); format: cell-based, human; settings: for HNF (HNF-3 beta) gene expression / Insulin gene expression / Pdx-1 gene expression / glucagon gene expression: 1.25 μM 0-24 h + 96-120 h; for HNF-3 beta RT-PCR detection cycle / Pdx-1 RT-PCR detection cycle / glucagon RT-PCR detection cycle: 1.25 μM
Protocol: Several cell lines obtained from different amniotic fluid specimens (see Example 14) and pancreas donors (see Example 13) were tested with similar results. Two lines at similar passage number but derived from different amniotic fluid specimens are shown in Table VII-A and Table VII-B for this example. One of these cell lines was also used in examples 2 and 4 above. In addition, this example also contains comparison data in Table VII-C and Table VII-D for a single pancreatic-derived stromal line grown to early and late passage number.
Amniotic fluid derived cells or pancreatic-derived stromal cells were seeded into 24-well tissue culture plates at a density of 5000/cm^2 and cultured in AMNIOMAX (Invitrogen) or DMEM with 10% FBS respectively under standard cell culture conditions until confluent. After the cells reached confluency, amniotic fluid derived cells were treated at time 0 hours with a dose of 500 nM trichostatin A, and pancreatic-derived stromal cells were treated with a dose of 1.25 μM trichostatin A solubilized in DMSO and medium. At time 24 hours, cell cultures underwent a complete medium change to remove all traces of trichostatin A. At time 96 hours, cell cultures were re-fed with fresh medium and received a second dose of trichostatin A at the same concentration as used previously. […]
Samples were taken daily for RT-PCR at the times indicated in Table VII-A to D. The culture medium was removed, and samples were rinsed in PBS then collected in RLT with β-mercaptoethanol (Qiagen). RNA was purified using the RNeasy Mini Kit (Qiagen) and RNA quantity and quality were determined using a spectrophotometer. cDNA was made using the iScript cDNA synthesis kit (BioRad).
Samples of 20 ng cDNA were used in each reaction to determine the expression levels of the following genes in amniotic fluid-derived cells: Gata1, HNF-3 beta, Pdx-1, insulin, and Sox17. Similarly, samples of 20 ng cDNA were used in each reaction to determine the expression level of the following genes in pancreatic-derived cells: glucagon, HNF-3 beta, insulin and Pdx-1. Real-Time PCR was performed on the Applied Biosystems 7500, and data was analyzed using the accompanying software according to the methods described in Example 15.
(§1) Real-time PCR amplifcation and quantitative analysis. Unless otherwise stated, all reagents were purchased from Applied Biosystems. Real-time PCR reactions were performed using the ABI PRISM™ 7500 Sequence Detection System. TAQMAN™ FAST UNIVERSAL PCR MASTER MIX™ (ABI, CA) was used with 20 ng of reverse transcribed RNA in a total reaction volume of 20 μl. Each cDNA sample was run in duplicate to allow correction of pipetting errors. Primers and FAM-labeled TAQMAN™ probes were used at concentrations of 200 nM. The level of expression for each target gene was normalized using the pre-developed Applied Biosystem's human glyceraldehyde-3-phosphate dehydrogenase (GAPDH) endogenous control kit. Primers and probes were designed using either ABI PRISM PRIMER EXPRESS™ software or a pre-developed ABI gene analysis kit. For each gene, either one of the primers or the probe were designed to be exon-boundary spanning. This eliminated the possibility of the primers/probe binding to any genomic DNA present. The primer and probe sets are listed as follows: Pdx-1 (Hs00426216), Insulin (Hs00355773), glucagon (Hs00174967), and FoxA2 (HNF 3-beta) (Hs00232764). The remaining primers were designed using the PRIMERS program (ABI, CA). After an initial 95° C. incubation for 20 sec, samples were cycled 40 times in two stages: a denaturation step at 95° C. for 3 sec, followed by an annealing/extension step at 60° C. for 30 sec.
For each primer/probe set, a cycle time value was determined as the cycle number at which the fluorescence intensity of the PCR reaction reached a specific value in the middle of the exponential region of amplification. […]

[2] = tested on: early passage (P5) pancreatic-derived stromal cell line; test: 6 hour trichostatin A treatment, gene expression by RT-PCR (Example 10); format: cell-based, human; settings: for HNF-3 beta gene expression / Insulin gene expression / Pdx-1 gene expression / glucagon gene expression: 5 μM for 6 h then removed
Protocol: Amniotic fluid derived cells or pancreas-derived cells were seeded into 24-well tissue culture plates at a density of 5000/cm^2 and cultured in AMNIOMAX (Invitrogen) or DMEM with 10% FBS respectively under standard cell culture conditions until confluency was reached. Upon reaching confluency, amniotic fluid derived cells were treated with 1.25 μM trichostatin A and pancreas-derived stromal cells were treated with 5.0 μM trichostatin A. The media was changed 6 hours following the addition of trichostatin A and cultures were maintained for the remainder of the experiment. Several cell lines obtained from amniotic fluid (see Example 14) and pancreas (see Example 13) were tested.
RNA samples were obtained at the time the trichostatin A was removed and 24 hours from the start of the experiment. The culture media was removed and cells were washed with PBS then collected in RLT Lysis Buffer with β-mercaptoethanol (Qiagen). RNA was purified using the RNeasy Mini Kit (Qiagen) and RNA quantity and quality was determined using a spectrophotometer. cDNA was made using the iScript cDNA synthesis kit (BioRad). Human pancreas cDNA was included as a control. Results were normalized against GAPDH expression levels.
The expression levels of Sox17, HNF-3 beta, Pdx-1, Insulin, and Gata-1 were analyzed in amniotic-derived cells while the expression levels of glucagon, insulin, PDX-1 and HNF-3 beta were analyzed in pancreas-derived cells. 20 ng of cDNA was used in each RT-PCR reaction, which was performed on the Applied Biosystems 7500, according to the methods described in Example 15. Data was analyzed using the accompanying software.
as §1
For each primer/probe set, a cycle time value was determined as the cycle number at which the fluorescence intensity of the PCR reaction reached a specific value in the middle of the exponential region of amplification. An increase in expression of a gene corresponded to a decrease in the number of cycles required for the fluorescence intensity to reach this value.

[3] = 24 hours following the addition
[4] = 5.0 μM, following 6 h treatment

## CC(/C=C/C(=O)NO)=C\[C@@H](C)C(=O)c1ccc(N(C)C)cc1 [trichostatin A]
[1]; 24 hrs
  HNF (HNF-3 beta) gene expression: +++ (detectable at less than 35 cycles by RT-PCR with SE less than 0.9)
  Insulin gene expression: nd (not detectable at >40 cycles by RT-PCR)
  Pdx-1 gene expression: +++ (detectable at less than 35 cycles by RT-PCR with SE less than 0.9)
  glucagon gene expression: +++ (detectable at less than 35 cycles by RT-PCR with SE less than 0.9)
[1]; 48 hrs
  HNF (HNF-3 beta) gene expression: nd (not detectable at >40 cycles by RT-PCR)
  Insulin gene expression: nd (not detectable at >40 cycles by RT-PCR)
  Pdx-1 gene expression: nd (not detectable at >40 cycles by RT-PCR)
  glucagon gene expression: + (detectable between 35 and 40 cycles by RT-PCR)
[1]; 72 hrs
  HNF (HNF-3 beta) gene expression: nd (not detectable at >40 cycles by RT-PCR)
  Insulin gene expression: nd (not detectable at >40 cycles by RT-PCR)
  Pdx-1 gene expression: nd (not detectable at >40 cycles by RT-PCR)
  glucagon gene expression: nd (not detectable at >40 cycles by RT-PCR)
[1]; 96 hrs
  HNF (HNF-3 beta) gene expression: nd (not detectable at >40 cycles by RT-PCR)
  Insulin gene expression: nd (not detectable at >40 cycles by RT-PCR)
  Pdx-1 gene expression: nd (not detectable at >40 cycles by RT-PCR)
  glucagon gene expression: nd (not detectable at >40 cycles by RT-PCR)
[1]; 120 hrs
  HNF (HNF-3 beta) gene expression: +++ (detectable at less than 35 cycles by RT-PCR with SE less than 0.9)
  Insulin gene expression: nd (not detectable at >40 cycles by RT-PCR)
  Pdx-1 gene expression: +++ (detectable at less than 35 cycles by RT-PCR with SE less than 0.9)
  glucagon gene expression: + (detectable between 35 and 40 cycles by RT-PCR)
[1]; 144 hrs
  HNF (HNF-3 beta) gene expression: nd (not detectable at >40 cycles by RT-PCR)
  Insulin gene expression: nd (not detectable at >40 cycles by RT-PCR)
  Pdx-1 gene expression: nd (not detectable at >40 cycles by RT-PCR)
  glucagon gene expression: + (detectable between 35 and 40 cycles by RT-PCR)
[1]; [3]
  HNF-3 beta RT-PCR detection cycle: 34 cycles
  Pdx-1 RT-PCR detection cycle: 34 cycles
[1]; after the second addition
  HNF-3 beta RT-PCR detection cycle: 33 cycles
  Pdx-1 RT-PCR detection cycle: 33 cycles
[1]; after the second treatment cycle
  glucagon RT-PCR detection cycle: 37 cycles
[1]; first 48 hours after addition
  glucagon RT-PCR detection cycle: 34 cycles
[2]; 6 hrs
  HNF-3 beta gene expression: +++ (detectable at less than 35 cycles by RT-PCR with SE less than 0.9)
  Insulin gene expression: nd (not detectable at >40 cycles by RT-PCR)
  Pdx-1 gene expression: + (detectable between 35 and 40 cycles by RT-PCR)
  glucagon gene expression: + (detectable between 35 and 40 cycles by RT-PCR)
[2]; 24 hrs
  HNF-3 beta gene expression: nd (not detectable at >40 cycles by RT-PCR)
  Insulin gene expression: +++ (detectable at less than 35 cycles by RT-PCR with SE less than 0.9)
  Pdx-1 gene expression: nd (not detectable at >40 cycles by RT-PCR)
  glucagon gene expression: + (detectable between 35 and 40 cycles by RT-PCR)
[2]; 5.0 μM, after trichostatin A was removed from the media
  Insulin RT-PCR detection cycle: 32 cycles
[2]; [4]
  HNF-3 beta RT-PCR detection cycle: 35 cycles
  glucagon RT-PCR detection cycle: 37 cycles
[2]; 5.0 μM, following treatment (38 before treatment)
  Pdx-1 RT-PCR detection cycle: 35 cycles
